Laboratory results as given in patent publication US8889671B2, “Compounds and methods for treating bacterial infections” (AstraZeneca AB, priority 2013, dated 2014).
Values after ≈ are worked out from the molar mass of the structure shown. Read-outs that look alike come from different tables or passages of the source.

Experiments:
Staphylococcus aureus = assay: Susceptibility testing (MIC) Assay 1, broth microdilution; type: cell-based; conditions: Staphylococcus aureus
Streptococcus pneumoniae = assay: as above; type: cell-based
Streptococcus pyogenes = assay: as above; type: cell-based; conditions: Streptococcus pyogenes, Streptococcus pyrgenes, in vivo strain; read-out: Spy MIC
Escherichia coli = assay: Susceptibility testing (MIC) Assay 2, broth microdilution; type: cell-based; conditions: K12, read-out: Eco MIC
Haemophilus influenzae = assay: as above; type: cell-based; conditions: ATCC51907, Haemophilus influenzae, ATCC 51907, in vivo strain, read-out: Hin MIC
Klebsiella pneumoniae = assay: as above; type: cell-based; conditions: clinical isolate, mucoid, read-out: Kpn MIC
Pseudomonas aeruginosa = assay: as above; type: cell-based; conditions: PAO1, read-out: Pae MIC
[1] = molecular target: Escherichia coli DNA gyrase A/B tetramer (Escherichia coli (strain K12), UniProt P0AES4+P0AES6); assay: DNA gyrase supercoiling activity fluorescence polarisation assay; type: biochemical; conditions: Eco Gyr FP Mean IC50, E. coli DNA gyrase supercoiling, 0.3 mM ATP
Outline: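 Relaxed triplex-forming plasmid (130 micrograms/mL) supercoiled by 5 nM gyrase A/B tetramer in Tris-HCl pH 7.5 buffer with 4 mM MgCl2 and 0.3 mM ATP, ~30 min, ambient temperature. Quenched with 5′-BODIPY-FL triplex probe at pH 3.5; fluorescence anisotropy read after 60 min. IC50 by nonlinear regression against two control reactions.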

[2] = Staphylococcus aureus in vivo strain, MSQS, read-out: Sau(d) MIC
[3] = in vivo strain, MRQR, read-out: Sau(e) MIC
[4] = in vivo strain (footnote b), read-out: Spn(b) MIC
[5] = in vivo strain (footnote c), read-out: Spn(c) MIC

SMILES	MIC (Staphylococcus aureus; [2]) [µM]	MIC (Staphylococcus aureus; [3]) [µM]	MIC (Staphylococcus aureus; serum, read-out: Sau(f) MIC) [µM]	MIC (Streptococcus pneumoniae; [4]) [µM]	MIC (Streptococcus pneumoniae; [5]) [µM]	MIC (Streptococcus pyogenes) [µM]	MIC (Escherichia coli) [µM]	MIC (Haemophilus influenzae) [µM]	MIC (Klebsiella pneumoniae) [µM]	MIC (Pseudomonas aeruginosa) [µM]	IC50 [1] [nM]
C[C@@H]1CN2c3c(cc4c(N5C(=O)OC[C@@H]5c5ccncc5)noc4c3F)CC3(C(=O)NC(=O)NC3=O)[C@H]2[C@H](C)O1 [Example 58, (2R,4S,4aS)-11-fluoro-2,4-dimethyl-8-((S)-2-oxo-4-(pyridin-4-yl)oxazolidin-3-yl)-2,4,4a,6-tetrahydro-1H,1′H-spiro[isoxazolo[4,5-g][1,4]oxazino[4,3-a]quinoline-5,5′-pyrimidine]-2′,4′,6′(3′H)-trione]	12 (≈ 6.61 µg/mL)	50 (≈ 27.5 µg/mL)	50 (≈ 27.5 µg/mL)	50 (≈ 27.5 µg/mL)	25 (≈ 13.8 µg/mL)	12 (≈ 6.61 µg/mL)	> 200	6.2 (≈ 3.41 µg/mL)	> 200	> 200	1500
CO[C@H](C)[C@H]1COC(=O)N1c1noc2c(F)c3c(cc12)CC1(C(=O)NC(=O)NC1=O)[C@H]1[C@H](C)O[C@H](C)CN31 [Example 59]	0.78 (≈ 0.415 µg/mL)	1.6 (≈ 0.85 µg/mL)	3.1 (≈ 1.65 µg/mL)	1.6 (≈ 0.85 µg/mL)	1.6 (≈ 0.85 µg/mL)	1.6 (≈ 0.85 µg/mL)	100 (≈ 53.1 µg/mL)	1.6 (≈ 0.85 µg/mL)	> 200	> 200	860
CO[C@@H](C)[C@@H]1COC(=O)N1c1noc2c(F)c3c(cc12)CC1(C(=O)NC(=O)NC1=O)[C@H]1[C@H](C)O[C@H](C)CN31 [Example 60]	0.78 (≈ 0.415 µg/mL)	1.6 (≈ 0.85 µg/mL)	1.6 (≈ 0.85 µg/mL)	1.6 (≈ 0.85 µg/mL)	1.6 (≈ 0.85 µg/mL)	1.6 (≈ 0.85 µg/mL)	100 (≈ 53.1 µg/mL)	1.6 (≈ 0.85 µg/mL)	> 200	> 200	950
C[C@@H]1CN2c3c(cc4c(N5C(=O)OC[C@H]5c5cnccn5)noc4c3F)CC3(C(=O)NC(=O)NC3=O)[C@H]2[C@H](C)O1 [Example 61, (2R,4S,4aS)-11-Fluoro-2,4-dimethyl-8-((R)-2-oxo-4-(pyrazin-2-yl)oxazolidin-3-yl)-2,4,4a,6-tetrahydro-1H,1′H-spiro[isoxazolo[4,5-g][1,4]oxazino[4,3-a]quinoline-5,5′-pyrimidine]-2′,4′,6′(3′H)-trione]	0.78 (≈ 0.43 µg/mL)	3.1 (≈ 1.71 µg/mL)	1.6 (≈ 0.882 µg/mL)	0.78 (≈ 0.43 µg/mL)	0.78 (≈ 0.43 µg/mL)	0.78 (≈ 0.43 µg/mL)	100 (≈ 55.1 µg/mL)	< 0.2	> 200	> 200	340
C[C@@H]1CN2c3c(cc4c(N5C(=O)OC[C@@H]5c5cnccn5)noc4c3F)CC3(C(=O)NC(=O)NC3=O)[C@H]2[C@H](C)O1 [Example 62, (2R,4S,4aS)-11-fluoro-2,4-dimethyl-8-((S)-2-oxo-4-(pyrazin-2-yl)oxazolidin-3-yl)-2,4,4a,6-tetrahydro-1H,1′H-spiro[isoxazolo[4,5-g][1,4]oxazino[4,3-a]quinoline-5,5′-pyrimidine]-2′,4′,6′(3′H)-trione]	3.1 (≈ 1.71 µg/mL)	6.2 (≈ 3.42 µg/mL)	6.2 (≈ 3.42 µg/mL)	6.2 (≈ 3.42 µg/mL)	3.1 (≈ 1.71 µg/mL)	3.1 (≈ 1.71 µg/mL)	> 200	3.1 (≈ 1.71 µg/mL)	> 200	> 200	1400
C[C@@H]1CN2c3c(cc4c(N5C(=O)OC[C@H]5c5ncccn5)noc4c3F)CC3(C(=O)NC(=O)NC3=O)[C@H]2[C@H](C)O1 [Example 63, (2R,4S,4aS)-11-Fluoro-2,4-dimethyl-8-((R)-2-oxo-4-(pyrimidin-2-yl)oxazolidin-3-yl)-2,4,4a,6-tetrahydro-1H,1′H-spiro[isoxazolo[4,5-g][1,4]oxazino[4,3-a]quinoline-5,5′-pyrimidine]-2′,4′,6′(3′H)-trione]	0.78 (≈ 0.43 µg/mL)	3.1 (≈ 1.71 µg/mL)	> 200	0.39 (≈ 0.215 µg/mL)	0.39 (≈ 0.215 µg/mL)	0.39 (≈ 0.215 µg/mL)	100 (≈ 55.1 µg/mL)	0.39 (≈ 0.215 µg/mL)	> 200	> 200	380
C[C@@H]1CN2c3c(cc4c(N5C(=O)OC[C@@H]5c5ncccn5)noc4c3F)CC3(C(=O)NC(=O)NC3=O)[C@H]2[C@H](C)O1 [Example 64, (2R,4S,4aS)-11-fluoro-2,4-dimethyl-8-((S)-2-oxo-4-(pyrimidin-2-yl)oxazolidin-3-yl)-2,4,4a,6-tetrahydro-1H,1′H-spiro[isoxazolo[4,5-g][1,4]oxazino[4,3-a]quinoline-5,5′-pyrimidine]-2′,4′,6′(3′H)-trione]	6.2 (≈ 3.42 µg/mL)	25 (≈ 13.8 µg/mL)	25 (≈ 13.8 µg/mL)	12 (≈ 6.62 µg/mL)	6.2 (≈ 3.42 µg/mL)	6.2 (≈ 3.42 µg/mL)	> 200	3.1 (≈ 1.71 µg/mL)	> 200	> 200	> 2100
C#C[C@H]1COC(=O)N1c1noc2c(F)c3c(cc12)CC1(C(=O)NC(=O)NC1=O)[C@H]1[C@H](C)O[C@H](C)CN31 [Example 65]	0.39 (≈ 0.194 µg/mL)	1.6 (≈ 0.796 µg/mL)	1.6 (≈ 0.796 µg/mL)	0.78 (≈ 0.388 µg/mL)	1.6 (≈ 0.796 µg/mL)	0.78 (≈ 0.388 µg/mL)	3.1 (≈ 1.54 µg/mL)	0.78 (≈ 0.388 µg/mL)	200 (≈ 99.5 µg/mL)	> 200	120
C[C@@H]1CN2c3c(cc4c(N5C(=O)OC[C@@H]5C)noc4c3Cl)CC3(C(=O)NC(=O)NC3=O)[C@H]2[C@H](C)O1 [Example 66, (2R,4S,4aS)-11-Chloro-2,4-dimethyl-8-((S)-4-methyl-2-oxooxazolidin-3-yl)-2,4,4a,6-tetrahydro-1H, 1′H-spiro[isoxazolo[4,5-g][1,4]oxazino[4,3-a]quinoline-5,5′-pyrimidine]-2′,4′,6′(3′H)-trione]	0.39 (≈ 0.197 µg/mL)	0.78 (≈ 0.393 µg/mL)	0.78 (≈ 0.393 µg/mL)	0.39 (≈ 0.197 µg/mL)	0.78 (≈ 0.393 µg/mL)	0.39 (≈ 0.197 µg/mL)	6.2 (≈ 3.12 µg/mL)	0.78 (≈ 0.393 µg/mL)	100 (≈ 50.4 µg/mL)	> 200	170
C[C@@H]1CN2c3c(cc4c(N5C(=O)OC[C@@H]5c5ncnn5C)noc4c3F)CC3(C(=O)NC(=O)NC3=O)[C@H]2[C@H](C)O1 [Example 68, (2R,4S,4aS)-11-Fluoro-2,4-dimethyl-8-((S)-4-(1-methyl-1H-1,2,4-triazol-5-yl)-2-oxooxazolidin-3-yl)-2,4,4a,6-tetrahydro-1H,1′H-spiro[isoxazolo[4,5-g][1,4]oxazino[4,3-a]quinoline-5,5′-pyrimidine]-2′,4′,6′(3′H)-trione]	12 (≈ 6.65 µg/mL)	25 (≈ 13.9 µg/mL)	12 (≈ 6.65 µg/mL)	3.1 (≈ 1.72 µg/mL)	6.2 (≈ 3.44 µg/mL)	3.1 (≈ 1.72 µg/mL)	200 (≈ 111 µg/mL)	1.6 (≈ 0.887 µg/mL)	> 200	> 200	220
C[C@@H]1CN2c3c(cc4c(N5C(=O)OC[C@H]5c5ncnn5C)noc4c3F)CC3(C(=O)NC(=O)NC3=O)[C@H]2[C@H](C)O1 [Example 69, (2R,4S,4aS)-11-Fluoro-2,4-dimethyl-8-((R)-4-(1-methyl-1H-1,2,4-triazol-5-yl)-2-oxooxazolidin-3-yl)-2,4,4a,6-tetrahydro-1H,1′H-spiro[isoxazolo[4,5-g][1,4]oxazino[4,3-a]quinoline-5,5′-pyrimidine]-2′,4′,6′(3′H)-trione]	12 (≈ 6.65 µg/mL)	25 (≈ 13.9 µg/mL)	12 (≈ 6.65 µg/mL)	12 (≈ 6.65 µg/mL)	12 (≈ 6.65 µg/mL)	3.1 (≈ 1.72 µg/mL)	> 200	3.1 (≈ 1.72 µg/mL)	> 200	> 200	600
C[C@@H]1CN2c3c(cc4c(N5C(=O)OC[C@@H]5[C@H](C)O)noc4c3F)CC3(C(=O)NC(=O)NC3=O)[C@H]2[C@H](C)O1 [Example 70]	12 (≈ 6.21 µg/mL)	50 (≈ 25.9 µg/mL)	25 (≈ 12.9 µg/mL)	1.6 (≈ 0.828 µg/mL)	3.1 (≈ 1.6 µg/mL)	1.6 (≈ 0.828 µg/mL)	200 (≈ 103 µg/mL)	1.6 (≈ 0.828 µg/mL)	> 200	> 200	610
C[C@@H]1CN2c3c(cc4c(N5C(=O)OC[C@@H]5CC#N)noc4c3F)CC3(C(=O)NC(=O)NC3=O)[C@H]2[C@H](C)O1 [Example 71, {(4S)-3-[(2R,4S,4aS)-11-Fluoro-2,4-dimethyl-2′,4′,6′-trioxo-1,1′,2,3′,4,4′,4a,6′-octahydro-2′H,6H-spiro[1,4-oxazino[4,3-a][1,2]oxazolo[4,5-g]quinoline-5,5′-pyrimidin]-8-yl]-2-oxo-1,3-oxazolidin-4-yl}acetonitrile]	3.1 (≈ 1.59 µg/mL)	6.2 (≈ 3.18 µg/mL)	3.1 (≈ 1.59 µg/mL)	1.6 (≈ 0.82 µg/mL)	1.6 (≈ 0.82 µg/mL)	1.6 (≈ 0.82 µg/mL)	50 (≈ 25.6 µg/mL)	1.6 (≈ 0.82 µg/mL)	> 200	> 200	160
C[C@@H]1CN2c3c(cc4c(N5C(=O)OC[C@@H]5[C@@H](O)CO)noc4c3F)CC3(C(=O)NC(=O)NC3=O)[C@H]2[C@H](C)O1 [Example 72]	25 (≈ 13.3 µg/mL)	50 (≈ 26.7 µg/mL)	25 (≈ 13.3 µg/mL)	0.78 (≈ 0.416 µg/mL)	3.1 (≈ 1.65 µg/mL)	0.39 (≈ 0.208 µg/mL)	> 200	3.1 (≈ 1.65 µg/mL)	> 200	> 200	290
C[C@@H]1CN2c3c(cc4c(N5C(=O)OC[C@@H]5[C@H](O)CO)noc4c3F)CC3(C(=O)NC(=O)NC3=O)[C@H]2[C@H](C)O1 [Example 73]	25 (≈ 13.3 µg/mL)	100 (≈ 53.3 µg/mL)	25 (≈ 13.3 µg/mL)	0.78 (≈ 0.416 µg/mL)	3.1 (≈ 1.65 µg/mL)	0.78 (≈ 0.416 µg/mL)	> 200	6.2 (≈ 3.31 µg/mL)	> 200	> 200	340
